Test results published in article PMC11440591 (Journal of Medicinal Chemistry, 2024).

Experiments:
in vitro = conditions: chlorocebus sabaeus
[1] = tested on: EBOV-GP-pseudotyped virus (pEBOV); assay: microbe, parasite or virus in culture; conditions: Zaire ebolavirus, Vero C1008, read-out: %inh@10 μM (pEBOV)
[2] = tested on: EBOV-GP-pseudotyped virus (pEBOV)
[3] = tested on: VSV-G-pseudotype virus (pVSV-G); assay: microbe, parasite or virus in culture; assay type: cell-based; conditions: Vesicular stomatitis virus, read-out: %inh@10µM (pVSV-G)

O=C(Nc1ccccc1)c1ccc(-c2ccccc2)s1 [compound 2]
CC50 (in vitro): > 100 µM
inhibition at 10 µM [1]: < 75%

O=C(Nc1ccc(Cl)cc1)c1ccc(-c2ccccc2)s1 [compound 3]
CC50 (in vitro): > 100 µM
inhibition at 10 µM [1]: < 75%

O=C(Nc1ccc(N2CCOCC2)cc1)c1ccc(-c2ccccc2)s1 [compound 6]
CC50 (in vitro): > 100 µM
inhibition at 10 µM [1]: < 75%

O=C(NCCC1CCN(Cc2ccccc2)CC1)c1ccc(-c2ccccc2)s1 [compound 7]
CC50 (in vitro): > 100 µM
inhibition at 10 µM [1]: < 75%

O=C(c1ccc(-c2ccccc2)s1)N1CCCC1 [compound 8]
CC50 (in vitro): > 100 µM
inhibition at 10 µM [1]: < 75%

O=C(Nc1ccccc1)c1ccc(-c2ccccc2O)s1 [compound 16]
CC50 (in vitro): > 100 µM
inhibition at 10 µM [1]: -36%

O=C(Nc1ccc(Cl)cc1)c1ccc(-c2ccccc2O)s1 [compound 17]
CC50 (in vitro): > 100 µM
inhibition at 10 µM [1]: -19%

O=C(Nc1cccc(Cl)c1)c1ccc(-c2ccccc2O)s1 [compound 18]
CC50 (in vitro): > 100 µM
inhibition at 10 µM [1]: -35%

O=C(NCCc1ccccc1)c1ccc(-c2ccccc2O)s1 [compound 19]
CC50 (in vitro): > 100 µM
inhibition at 10 µM [1]: -22%

O=C(Nc1ccc(N2CCOCC2)cc1)c1ccc(-c2ccccc2O)s1 [compound 20]
CC50 (in vitro): > 100 µM
inhibition at 10 µM [1]: -23%

O=C(NCCC1CCN(Cc2ccccc2)CC1)c1ccc(-c2ccccc2O)s1 [compound 21]
CC50 at 24 h (in vitro): 70 µM
inhibition at 10 µM [1]: -22%

O=C(c1ccc(-c2ccccc2O)s1)N1CCCC1 [compound 22]
CC50 (in vitro): > 200 µM
inhibition at 10 µM [1]: 0%

O=C(Nc1ccc(Cl)cc1)c1ccc(-c2cccc(O)c2)s1 [compound 24]
CC50 (in vitro): > 200 µM
inhibition at 10 µM [1]: 16%

O=C(Nc1cccc(Cl)c1)c1ccc(-c2cccc(O)c2)s1 [compound 25]
CC50 (in vitro): > 200 µM
inhibition at 10 µM [1]: -20%

O=C(NCCc1ccccc1)c1ccc(-c2cccc(O)c2)s1 [compound 26]
CC50 (in vitro): > 200 µM
inhibition at 10 µM [1]: 10%

O=C(Nc1ccc(Cl)cc1)c1ccc(-c2ccc(O)cc2)s1 [compound 28]
CC50 (in vitro): > 200 µM
inhibition at 10 µM [1]: 46%

O=C(Nc1cccc(Cl)c1)c1ccc(-c2ccc(O)cc2)s1 [compound 29]
CC50 (in vitro): > 200 µM
inhibition at 10 µM [1]: 27%

O=C(NCCc1ccccc1)c1ccc(-c2ccc(O)cc2)s1 [compound 30]
CC50 (in vitro): > 200 µM
inhibition at 10 µM [1]: -63%

O=C(NCCC1CCN(Cc2ccccc2)CC1)c1ccc(-c2ccc(O)cc2)s1 [compound 31]
CC50 (in vitro): > 100 µM
inhibition at 10 µM [1]: 41%

CC(C)(C)OC(=O)N1CCC(Oc2ccccc2-c2ccc(C(=O)Nc3cccc(Cl)c3)s2)CC1 [compound 34, tert-butyl 4-(2-(5-((3-chlorophenyl)carbamoyl)thiophen-2-yl)phenoxy)piperidine-1-carboxylate]
antiviral activity against pEBOV (in words) [2]: complete loss of activity
CC50 (in vitro): > 100 µM
inhibition at 10 µM [1]: -36%

CC(C)(C)OC(=O)N1CCC(Oc2cccc(-c3ccc(C(=O)Nc4ccccc4)s3)c2)CC1 [compound 39, tert-butyl 4-(3-(5-(phenylcarbamoyl)thiophen-2-yl)phenoxy)piperidine-1-carboxylate]
antiviral activity against pEBOV (in words) [2]: complete loss of activity
inhibition at 10 µM [1]: 38%

O=C(Nc1ccccc1)c1ccc(-c2ccccc2OC2CCN(Cc3ccccc3)CC2)s1 [compound 64]
antiviral activity against pEBOV (in words) [2]: lacked activity
CC50 (in vitro): > 200 µM
inhibition at 10 µM [1]: 27%

O=C(Nc1ccccc1)c1cnc(-c2ccc(OC3CCNCC3)cc2)s1 [compound 78, N-Phenyl-2-(4-(piperidin-4-yloxy)phenyl)thiazole-5-carboxamide]
inhibition at 10 µM [3]: -32%
CC50 at 24 h (in vitro): 50 µM
inhibition at 10 µM [1]: -96%

O=C(Nc1ccccc1)c1cnc(-c2cccc(OC3CCNCC3)c2)s1 [compound 98, N-Phenyl-2-(3-(piperidin-4-yloxy)phenyl)thiazole-5-carboxamide]
inhibition at 10 µM [3]: -18%
inhibition at 10 µM [1]: -8%
